Data as given in patent US20080200405A1, “Drug Resistance Reversal In Neoplastic Disease” (priority 2007, published 2008).

Legend:
[1] = Single-dose 10-minute intravenous infusion toxicokinetics of OT-551; format: in vivo, Sprague-Dawley rats
Protocol: Blood for toxicokinetic evaluations was collected at pre-determined time points during and after the infusion. Plasma samples were analyzed for OT-551 and TP-H using validated LC/MS/MS assays. Descriptive toxicokinetic parameters were determined by standard model independent methods (Gilbaldi and Perrier, 1982) based on the plasma concentration-time data. […] The plasma concentrations were rounded to the nearest tenth of a ng/mL before the calculations. […] Nominal time points were used for all calculations. Since there was no apparent gender difference in the plasma concentrations of OT-551 and TP-H, the data for male and female rats at each sampling time point were pooled.

[2] = test system: bFGF-induced angiogenesis in the CAM model; test: bFGF (FGF2)-stimulated CAM model; format: in vivo, chicken; details: for Mean % Inhibition ± SD / Mean Branch points ± SEM: bFGF 1 μg/ml
[3] = In vitro stability of OT-551 in rabbit plasma; format: in vitro ADME
Protocol: (§1) The active metabolite of OT-551 (Cyclopropanecarboxylic acid 1-hydroxy-2,2,6,6-tetramethyl-piperidin-4-yl ester) is TP-H. The objective of this analysis was to determine the in vitro half-life of OT-551 in rat, rabbit, dog, and human plasma under standardized incubation conditions.
(§2) OT-551 was incubated with pooled rat, rabbit, dog, and human plasma for various times under standardized incubation conditions. Pre-labeled tubes containing pooled plasma from rats, rabbits, dogs, and humans were pre-incubated in a shaking 37° C. water bath. A OT-551 solution was added to the tubes at a final concentration of 1000 ng/mL. Time zero samples (n=5) were immediately removed and transferred into tubes containing a stabilizer solution (DTPA, acetylcysteine and ascorbic acid), the LC/MS/MS assay internal standard and methanol. […] The tubes were vortexed, placed on ice, followed by centrifugation. One hundred-μL aliquots of the supernatant were transferred into HPLC sample vials. Additional tubes (n=5 at each time point) were incubated for 5, 10, 20, 30, 60, 120, and 240 minutes at 37° C. and thereafter processed. The amount of OT-551 and TP-H in each incubated sample was quantified using validated LC/MS/MS assays.

[4] = In vitro stability of OT-551 in human plasma; format: in vitro ADME
Protocol: as §1, §2

[5] = Sprague-Dawley rats, 10-minute iv infusion of OT-551 10 mg/kg
[6] = Sprague-Dawley rats, 10-minute iv infusion of OT-551 30 mg/kg
[7] = Sprague-Dawley rats, 10-minute iv infusion of OT-551 100 mg/kg
[8] = Sprague-Dawley rats, 10-minute iv infusion of OT-551 200 mg/kg

With `CC1(C)CC(OC(=O)C2CC2)CC(C)(C)N1O.Cl` [OT-551, 1-hydroxy-4-cyclopropanecarbonyloxy-2,2,6,6-tetramethylpiperidine hydrochloride] the “peak plasma concentration of OT-551 at the end of the infusion” value (from here on “peak plasma concentration … of the infusion”) ([1]; 10 mg/kg OT-551, 10-minute i.v. infusion) was 980.5 ng/mL, the “plasma level of OT-551 one hour after termination of the infusion” value ([1]; 10 mg/kg, assay limit <50 ng/mL) was “not quantifiable” and the “peak plasma concentration … of the infusion” value ([1]; 30 mg/kg OT-551, 10-minute i.v. infusion) was 3487.1 ng/mL. For the same molecule, the “peak plasma concentration … of the infusion” value ([1]; 100 mg/kg OT-551, 10-minute i.v. infusion) was 29020.0 ng/mL, the “peak plasma concentration … of the infusion” value ([1]; 200 mg/kg OT-551, 10-minute i.v. infusion) was 89740.8 ng/mL and the “plasma levels of OT-551 four hours after termination of the infusion” value ([1]; 30 to 200 mg/kg, assay limit <50 ng/mL) was “not quantifiable”. For the same molecule, the “Cmax of OT-551” value [1, 5] was 980.5 ng/mL, the “Cmax of OT-551” value [1, 6] was 3487.1 ng/mL and the “Cmax of OT-551” value [1, 7] was 29020.0 ng/mL. For the same molecule, the “Cmax of OT-551” value [1, 8] was 89740.8 ng/mL, the “clearance of OT-551 in rats” value ([1]; rat, in vivo) was “very rapid” and the inhibition in vivo at 0.03 mg ([2]; Gallus gallus, bFGF/FGF2 1 ug, 30 ug injected, read-out: % Inhibition ± SEM) was 74 ± 4%. The “Branch pts ± SEM” value ([2]; bFGF/FGF2 1 ug, 30 ug injected) was 87 ± 3, the “Concentrations (ng/mL) of OT-551 in Rabbit Plasma” value ([3]; incubation time 0 min) was 502.75 ± 74.66 ng/mL and the “Concentrations (ng/mL) of OT-551 in Rabbit Plasma” value ([3]; incubation time 5 min) was 14.56 ± 3.35 ng/mL. For the same molecule, the “Concentrations (ng/mL) of OT-551 in Rabbit Plasma” value ([3]; incubation time 10 min) was 0.00 ± 0.00 ng/mL, the “Concentrations (ng/mL) of OT-551 in Rabbit Plasma” value ([3]; incubation time 20 min) was 0.00 ± 0.00 ng/mL and the “Concentrations (ng/mL) of OT-551 in Rabbit Plasma” value ([3]; incubation time 30 min) was 0.00 ± 0.00 ng/mL. For the same molecule, the “Concentrations (ng/mL) of OT-551 in Rabbit Plasma” value ([3]; incubation time 60 min) was 0.00 ± 0.00 ng/mL, the “Concentrations (ng/mL) of OT-551 in Rabbit Plasma” value ([3]; incubation time 120 min) was 0.00 ± 0.00 ng/mL and the “Concentrations (ng/mL) of OT-551 in Rabbit Plasma” value ([3]; incubation time 240 min) was 0.00 ± 0.00 ng/mL. The “Concentrations (ng/mL) of OT-551 in Human Plasma” value ([4]; incubation time 0 min) was 775.47 ± 22.50 ng/mL, the “Concentrations (ng/mL) of OT-551 in Human Plasma” value ([4]; incubation time 5 min) was 593.43 ± 7.55 ng/mL and the “Concentrations (ng/mL) of OT-551 in Human Plasma” value ([4]; incubation time 10 min) was 503.18 ± 20.90 ng/mL. The “Concentrations (ng/mL) of OT-551 in Human Plasma” value ([4]; incubation time 20 min) was 394.69 ± 6.72 ng/mL, the “Concentrations (ng/mL) of OT-551 in Human Plasma” value ([4]; incubation time 30 min) was 316.37 ± 7.67 ng/mL and the “Concentrations (ng/mL) of OT-551 in Human Plasma” value ([4]; incubation time 60 min) was 162.41 ± 9.77 ng/mL. For the same molecule, the “Concentrations (ng/mL) of OT-551 in Human Plasma” value ([4]; incubation time 120 min) was 32.22 ± 2.63 ng/mL and the “Concentrations (ng/mL) of OT-551 in Human Plasma” value ([4]; incubation time 240 min) was 0.00 ± 0.00 ng/mL.

With `CC1(C)CC(O)CC(C)(C)N1O` [TEMPOL-H] the “peak plasma concentration of TP-H at the end of the OT-551 infusion” value (from here on “peak plasma concentration of TP-H”) ([1]; 10 mg/kg OT-551) was 2481.7 ng/mL, the “plasma levels of TP-H at 4 hr post infusion” value ([1]; 10 mg/kg OT-551) was “still quantifiable” and the “terminal elimination half-life of TP-H” value ([1]; 10 mg/kg OT-551) was 24 min. For the same molecule, the “peak plasma concentration of TP-H” value ([1]; 30 mg/kg OT-551) was 8337.7 ng/mL, the “peak plasma concentration of TP-H” value ([1]; 100 mg/kg OT-551) was 29020.8 ng/mL and the “peak plasma concentration of TP-H” value ([1]; 200 mg/kg OT-551) was 60802.1 ng/mL. For the same molecule, the “levels of TP-H four hours after terminating the infusion relative to concentrations immediately after terminating the infusion” value ([1]; 30, 100 and 200 mg/kg OT-551) was “less than 1%”, the “Mean ± SD Plasma Concentrations of TP-H” value ([1]; OT-551 10 mg/kg iv infusion, 1.167 hr) was 204.7 ± 85.6 ng/mL and the “Mean ± SD Plasma Concentrations of TP-H” value ([1]; OT-551 10 mg/kg iv infusion, 2.167 hr) was 25.2 ± 24.0 ng/mL. The “Mean ± SD Plasma Concentrations of TP-H” value ([1]; OT-551 10 mg/kg iv infusion, 4.167 hr) was 4.2 ± 10.3 ng/mL, the “Mean ± SD Plasma Concentrations of TP-H” value ([1]; OT-551 30 mg/kg iv infusion, 4.167 hr, n = 5) was 53.8 ± 29.7 ng/mL and the “Mean ± SD Plasma Concentrations of TP-H” value ([1]; OT-551 100 mg/kg iv infusion, 4.167 hr) was 160.0 ± 97.5 ng/mL. The “Mean ± SD Plasma Concentrations of TP-H” value ([1]; OT-551 200 mg/kg iv infusion, 4.167 hr) was 524.5 ± 237.0 ng/mL, the “AUC(0-4.167 hr) of TP-H” value [1, 5] was 1694.8 ng·h/mL and the “Cmax of TP-H” value [1, 5] was 2481.7 ng/mL. For the same molecule, the “T½ of TP-H” value ([1]; Sprague-Dawley rats, 10-minute iv infusion of OT-551 10 mg/kg, elimination half-life) was 24 min, the “AUC of TP-H” value ([1]; Sprague-Dawley rats, 10-minute iv infusion of OT-551 10 mg/kg, to time infinity) was 1697.5 ng·h/mL and the “Cmax of TP-H” value [1, 6] was 8337.7 ng/mL. The “Cmax of TP-H” value [1, 7] was 29020.8 ng/mL, the “Cmax of TP-H” value [1, 8] was 60802.2 ng/mL and the “Mean ± SD Plasma Concentrations of TP-H” value ([1]; Sprague-Dawley rats, single 10-minute iv infusion of OT-551 10 mg/kg, 0.167 hr from start of infusion) was 2481.7 ± 325.8 ng/mL. For the same molecule, the “Mean ± SD Plasma Concentrations of TP-H” value ([1]; Sprague-Dawley rats, single 10-minute iv infusion of OT-551 30 mg/kg, 0.167 hr, n = 5) was 8337.7 ± 2099.5 ng/mL, the “Mean ± SD Plasma Concentrations of TP-H” value ([1]; Sprague-Dawley rats, single 10-minute iv infusion of OT-551 100 mg/kg, 0.167 hr) was 29020.8 ± 11713.7 ng/mL and the “Mean ± SD Plasma Concentrations of TP-H” value ([1]; Sprague-Dawley rats, single 10-minute iv infusion of OT-551 200 mg/kg, 0.167 hr) was 60802.2 ± 8922.5 ng/mL. For the same molecule, the “Tmax of TP-H” value ([1]; rat, in vivo, iv) was 10 min, the “inhibition of bFGF-induced angiogenesis” value ([2]; 100-400 μg) was “dose-dependent inhibition” and the “Mean % Inhibition ± SD” value ([2]; 100 μg) was 20 ± 12%. For the same molecule, the “Mean Branch points ± SEM” value ([2]; 100 μg) was 172 ± 12.4, the “Mean % Inhibition ± SD” value ([2]; 200 μg) was 45.3 ± 7.5 % and the “Mean Branch points ± SEM” value ([2]; 200 μg) was 147.2 ± 7.5. For the same molecule, the “Mean % Inhibition ± SD” value ([2]; 400 μg) was 58.7 ± 10.9 %, the “Mean Branch points ± SEM” value ([2]; 400 μg) was 133.8 ± 10.8 and the “Mean % Inhibition ± SD” value ([2]; 800 μg) was 28.1 ± 6.8 %. For the same molecule, the “Mean Branch points ± SEM” value ([2]; 800 μg) was 164.2 ± 6.7, the “Concentrations (ng/mL) of TP-H in Rabbit Plasma” value ([3]; OT-551 incubation time 0 min) was 270.55 ± 35.45 ng/mL and the “Concentrations (ng/mL) of TP-H in Rabbit Plasma” value ([3]; OT-551 incubation time 5 min) was 587.17 ± 21.99 ng/mL. The “Concentrations (ng/mL) of TP-H in Rabbit Plasma” value ([3]; OT-551 incubation time 10 min) was 604.21 ± 21.99 ng/mL, the “Concentrations (ng/mL) of TP-H in Rabbit Plasma” value ([3]; OT-551 incubation time 20 min) was 590.06 ± 40.97 ng/mL and the “Concentrations (ng/mL) of TP-H in Rabbit Plasma” value ([3]; OT-551 incubation time 30 min) was 533.01 ± 117.40 ng/mL. The “Concentrations (ng/mL) of TP-H in Rabbit Plasma” value ([3]; OT-551 incubation time 60 min) was 569.19 ± 32.96 ng/mL, the “Concentrations (ng/mL) of TP-H in Rabbit Plasma” value ([3]; OT-551 incubation time 120 min) was 525.63 ± 10.31 ng/mL and the “Concentrations (ng/mL) of TP-H in Rabbit Plasma” value ([3]; OT-551 incubation time 240 min) was 477.54 ± 40.95 ng/mL. For the same molecule, the “Concentrations (ng/mL) of TP-H in Human Plasma” value ([4]; OT-551 incubation time 0 min) was 48.76 ± 2.84 ng/mL, the “Concentrations (ng/mL) of TP-H in Human Plasma” value ([4]; OT-551 incubation time 5 min) was 186.71 ± 4.58 ng/mL and the “Concentrations (ng/mL) of TP-H in Human Plasma” value ([4]; OT-551 incubation time 10 min) was 241.99 ± 8.05 ng/mL. The “Concentrations (ng/mL) of TP-H in Human Plasma” value ([4]; OT-551 incubation time 20 min) was 310.10 ± 8.54 ng/mL, the “Concentrations (ng/mL) of TP-H in Human Plasma” value ([4]; OT-551 incubation time 30 min) was 365.53 ± 14.44 ng/mL and the “Concentrations (ng/mL) of TP-H in Human Plasma” value ([4]; OT-551 incubation time 60 min) was 449.85 ± 9.73 ng/mL. For the same molecule, the “Concentrations (ng/mL) of TP-H in Human Plasma” value ([4]; OT-551 incubation time 120 min) was 519.12 ± 19.52 ng/mL and the “Concentrations (ng/mL) of TP-H in Human Plasma” value ([4]; OT-551 incubation time 240 min) was 501.39 ± 11.33 ng/mL.
